Results taken from patent publication US6863883B1, “Permanent wave agent composition having dyeing effect and method for dyeing hair using the same” (Henkel Lion Cosmetics Co. Ltd., priority 1998, dated 2005).

Columns and labels:
[1] = Stability with time of a second solution of a permanent waving composition containing a direct dye (storage at 45° C.); assay type: physicochemical; details: for pH (45° C.) Initial / pH (45° C.) 2 weeks / pH (45° C.) 4 weeks: 0.2% dye in second solution; for pH (45° C.) 2 weeks / pH (45° C.) 4 weeks: stored at 45° C.; for Ratio of dye that remains solubilized after 4 weeks at 45° C.: absorbance at maximum wavelength, initial value defined as 100%
Source text: Each of an acidic dye, tar-series pigment and cationic dye which are a direct dye was weighed out so as to be 0.2% by weight in terms of the active ingredient, and added to a second solution of a permanent waving composition formulated as shown in Table 1 to stir.
As the acidic dye. […] In the tar-series pigment, HC BLUE 2 and HC YELLOW 2 (manufactured by JAMS ROBINSON Inc.) were used. And, as the […] dye, (A): (1-methyl-1-paramethoxyphenyl)-2-(1-methane-4N-methylpyridinium)hydrazine chloride, (B): 4-dimethylaminophenylazo-2N— methyl-5N-methylimidazolium chloride and (C): 4-aminophenylazo-2N-methyl-5N-methylimidazo ium chloride (manufactured by Ciba Specialty Chemicals, Inc.) were used.
The sample was stored at 45° C., and stability of the sample with time was evaluated for solubility of the dye in the sample, pH, absorption spectra in a visible light range.
The evaluation for solubility of the dye was conducted based on the following criteria: • ◯: No change in solubility compared to that measured two weeks before; and • X: Precipitation of the dye
A pH was measured with a pH meter manufactured by HORIBA Inc. Limited. Moreover, the evaluation for the absorption spectra in the visible light range was conducted by measuring an absorbance at the maximum absorbance wavelength in the absorption spectra in the visible light range using HITACHI U-3210 (using a quartz cuvette having 10 mm optical path) and calculating a ratio of the dye that remains solubilized after 4 weeks by defining the initial measured solubilized value as 100%.

[2] = Fastness test of dyed goat hair (surfactant solution at 80° C. for 10 minutes); design: key: ⊚: Deeply dyed and an original white color of the goat hair is not prominent; ◯: Dyed to a degree that an original white color of the goat hair is not prominent; Δ: Dyed, but prominent in an original white color of the goat hair; X: Only an original white color of the goat hair; details: 24 hours after dyeing, surfactant solution 80° C. 10 minutes
Procedure: (§1) Thereafter, the hair which was dyed in the dyeability test was allowed to stand for 24 hours after dyeing, then immersed into 300 ml of an aqueous solution containing 0.03/sodium polyoxyethylene (2 E.O.) alkyl (12, 13) ether sulfate at 80° C. for 10 minutes. Then, the hair was adequately rinsed with warm water, dried, and fastness was evaluated by observing dyeability for the hair after the test. The evaluation was conducted based on the following criteria: • ⊚: Deeply dyed and an original white color of the goat hair is not prominent • ◯: Dyed to a degree that an original white color of the goat hair is not prominent • Δ: Dyed, but prominent in an original white color of the goat hair • X: Only an original white color of the goat hair.

[3] = Dyeability test of second solution containing a dye on goat hair; design: key: ⊚: Deeply dyed and an original white color of the goat hair is not prominent; ◯: Dyed to a degree that an original white color of the goat hair is not prominent; Δ: Dyed, but prominent in an original white color of the goat hair; X: Only an original white color of the goat hair; details: first solution 30° C. 15 minutes, then second solution with 0.2% dye
Procedure: To approximately 2 g of goat hair, approximately 2 g of a first solution of a permanent waving composition was applied, and the hair was allowed to stand in a constant temperature bath at 30° C. for 15 minutes. Then, approximately 2 g of the same filtered second solution of a permanent waving composition as that described in Test Example 1 was applied to the hair, and the hair was shampooed and treated with a hair rinse conditioner, and adequately rinsed with water. After drying the hair, dyeability for the hair was evaluated.
as §1

[4] = Effect of pH of cationic dye solution on dyeability (Test Example 5); design: species or system goat; details: 0.05% aqueous solution, 30 minutes
Source text: (§2) Thereafter, each 2 g of the first solution and the second solution not containing the dye was applied to the permanently waved hair under the same condition as that described above. After the treatment with the second solution, the hair was adequately washed with water, and 2 g of a 0.05/aqueous solution of the cationic dye (B) which had been adjusted to pH 9 was applied to the hair which had been permanently waved and the untreated hair, respectively, which were allowed to stand at a treatment temperature of 30° C. for a treatment period of 30 minutes. Then, the hair was shampooed and treated with a hair rinse conditioner, adequately rinsed with water and dried, and dyeability was evaluated. Dyeability was evaluated according to a brightness of JIS standard color chart. The smaller value thereof indicates higher dyeability.
A 0.05% aqueous solution of a cationic dye (C) was adjusted to pH 3, 5, 7, 9 or 11, and 4 g thereof was applied to approximately 2 g of goat hair. The, hair was allowed to stand in a constant temperature bath at 30° C. for 30 minutes. Then, the hair was shampooed and treated with a hair rinse conditioner, adequately washed with water and dried, and dyeability was evaluated according to the same manner as that described in Test Example 4.

[5] = Effect of water content (propylene glycol) on dyeability (Test Example 6); design: species or system goat; details: 0.05% solution, pH 9
Source text: as §2
0.05% aqueous solutions of a cationic dye (C), each containing 0, 10, 20, 30, 40 and 50% propylene glycol respectively, were adjusted to pH 9.4 g of each solution was applied to approximately 2 g of goat hair, and the goat hair was allowed to stand in a constant temperature bath at 30° C. for 30 minutes. Then, the hair was shampooed and treated with a hair rinse conditioner, and adequately washed with water and dyeability was evaluated according to the same manner as that described in Test Example 4.

SMILES	pH (45° C.) Initial [1]	pH (45° C.) 2 weeks [1]	pH (45° C.) 4 weeks [1]	Ratio of dye that remains solubilized after 4 weeks at 45° C. [1]	Stability with time in the second solution of the permanent waving composition ([1]; summary of Table 2, 45° C.)	Fastness [2]	Dyeability [3]	Dyeability (JIS brightness) ([4]; pH 3, 30° C.)	Dyeability (JIS brightness) ([4]; pH 5, 30° C.)	Dyeability (JIS brightness) ([4]; pH 7, 30° C.)	Dyeability (JIS brightness) ([4]; pH 9, 30° C.)	Dyeability (JIS brightness) ([4]; pH 11, 30° C.)	Dyeability (JIS brightness) ([5]; propylene glycol 0 wt %)	Dyeability (JIS brightness) ([5]; propylene glycol 10 wt %)	Dyeability (JIS brightness) ([5]; propylene glycol 20 wt %)	Dyeability (JIS brightness) ([5]; propylene glycol 30 wt %)	Dyeability (JIS brightness) ([5]; propylene glycol 40 wt %)	Dyeability (JIS brightness) ([5]; propylene glycol 50 wt %)
Nc1c(N=Nc2ccc([N+](=O)[O-])cc2)c(S(=O)(=O)[O-])cc2cc(S(=O)(=O)[O-])c(N=Nc3ccccc3)c(O)c12.[Na+].[Na+] [BLACK 401]	6.43	6.44	6.45	–	–	X	◯	–	–	–	–	–	–	–	–	–	–	–
O=[N+]([O-])c1cc(N(CCO)CCO)ccc1NCCO [HC BLUE 2]	6.43	6.44	6.15	0.00%	–	X	◯	–	–	–	–	–	–	–	–	–	–	–
O=[N+]([O-])c1ccccc1NCCO [HC YELLOW 2]	6.43	6.42	6.44	97.6%	stable with time	X	◯	–	–	–	–	–	–	–	–	–	–	–
Cc1ccc(Nc2ccc(O)c3c2C(=O)c2ccccc2C3=O)c(S(=O)(=O)[O-])c1.[Na+] [PURPLE 401]	6.54	6.52	6.54	92.2%	–	X	X	–	–	–	–	–	–	–	–	–	–	–
COc1ccc(N(C)N=Cc2cc[n+](C)cc2)cc1 [cationic dye (A), (1-methyl-1-paramethoxyphenyl)-2-(1-methane-4N-methylpyridinium)hydrazine chloride]	6.43	6.42	6.42	99.6%	–	⊚	⊚	–	–	–	–	–	–	–	–	–	–	–

Second part, led by results:

pH (45° C.) Initial [1]	pH (45° C.) 2 weeks [1]	pH (45° C.) 4 weeks [1]	Ratio of dye that remains solubilized after 4 weeks at 45° C. [1]	Stability with time in the second solution of the permanent waving composition ([1]; summary of Table 2, 45° C.)	SMILES	Fastness [2]	Dyeability [3]	Dyeability (JIS brightness) ([4]; pH 3, 30° C.)	Dyeability (JIS brightness) ([4]; pH 5, 30° C.)	Dyeability (JIS brightness) ([4]; pH 7, 30° C.)	Dyeability (JIS brightness) ([4]; pH 9, 30° C.)	Dyeability (JIS brightness) ([4]; pH 11, 30° C.)	Dyeability (JIS brightness) ([5]; propylene glycol 0 wt %)	Dyeability (JIS brightness) ([5]; propylene glycol 10 wt %)	Dyeability (JIS brightness) ([5]; propylene glycol 20 wt %)	Dyeability (JIS brightness) ([5]; propylene glycol 30 wt %)	Dyeability (JIS brightness) ([5]; propylene glycol 40 wt %)	Dyeability (JIS brightness) ([5]; propylene glycol 50 wt %)
6.44	6.43	6.45	98.7%	–	O=S(=O)([O-])c1ccc(N=Nc2c(O)ccc3ccccc23)cc1.[Na+] [ORANGE 205]	X	Δ	–	–	–	–	–	–	–	–	–	–	–
6.41	6.40	6.41	102.0%	–	Cn1cc[n+](C)c1N=Nc1ccc(N)cc1 [cationic dye (C), 4-aminophenylazo-2N-methyl-5N-methylimidazo ium chloride]	⊚	⊚	6.5	6.0	5.7	5.3	5.0	6.5	6.8	7.0	7.7	8.5	9.0
